The target in data set [1] is tPA (Homo sapiens, UniProt P00750). The experiment in a line: Chromogenic substrate assay, Ki determination, tPA. It is filed as biochemical. The protocol: (§1) The inhibitor (I) constants (Ki) were determined for the inhibition of a series of human enzymes (FXa, thrombin, trypsin, plasmin, protein Ca, streptokinase, tPA, and urokinase) by each compound. Chromogenic substrate assays were performed using a Labsystems IEMS (Cergy Pontoise, France) microtiter plate reader. In each assay, the compound was tested at a minimum of seven concentrations in duplicate to obtain an inhibition curve. Assays were performed according to the following general procedure. In a 96-well microtiter plate, 25 μL of compound, inhibitor solution or buffer was added to 50 μL of substrate. A volume of 25 μL of enzyme solution was added just before the plate was placed in the microtiter plate reader for 1 h at 37 °C. The hydrolysis of the substrate yields p-nitroaniline, which was continuously monitored spectrophotometrically at 405 nm. Data were collected and the initial rate of substrate hydrolysis [Vo (mOD/minute)] was calculated. Following Michaelis-Menten kinetics, the affinity of the enzyme for the substrate, in the absence of the inhibitor (Km) and in the presence of an inhibitor (Kp), was determined to be the negative inverse x-intercept of Lineweaver–Burk plots. The dissociation constant for inhibition (Ki) was calculated using the following equation: Ki = (Km·[I])/(Kp − Km) as described by Williams and Morrison[40].

For data set [2], the system named is HUVECs. The experiment in a line: Production of factor Xa on the surface of TNF-α-stimulated HUVECs. The class given is cell-based, human. The note with it: 10 min pre-incubation. The method, then:
Figure 6 Effects of compounds 1–4 on inhibition and production of FXa. […] The plots represent means of three independent measurements. (E) Human umbilical vein endothelial cells (HUVECs) were pre-incubated with the indicated concentration of each compound for 10 min. HUVECs stimulated with tumor necrosis factor-α (TNF-α, 10 ng/mL for 6 h) were incubated with FVIIa (10 nM) and FX (175 nM) in the absence or presence of anti-TF IgG (25 µg/mL). FXa production was determined as described in the “ Supplementary Materials and Methods” section. D = 0.2% DMSO used as the vehicle control. (F) Inhibition of FXa by each compound (5 μM) with or without TFPI (2 nM) was monitored using a chromogenic assay. ^* p < 0.05 vs. TNF-α alone (E) or each compound (F) alone, analyzed via one-way ANOVA, followed by Tukey multiple comparison testing.
Production of FXa by FVIIa is dependent on tissue factor (TF) expression in tumor necrosis factor-α (TNF-α)-stimulated HUVECs[22]. Thus, we investigated the effects of compounds 1–4 on the production of FXa by FVIIa. HUVECs were stimulated with TNF-α to induce TF expression, causing an 11.9-fold increase in the rate of FX production by FVIIa (109.4 ± 9.2 nM) over that of non-stimulated HUVECs (9.2 ± 0.8 nM). […] We next determined whether each compound compete with tissue factor pathway inhibitor (TFPI) in the inhibition of FXa. […]

In data set [3] the target is Urokinase (Homo sapiens, UniProt P00749). The experiment in a line: Chromogenic substrate assay, Ki determination, Urokinase. It is filed as biochemical. The method, then:
as §1

Data set [4] deals with Plasmin (Homo sapiens, UniProt P00747). The experiment in a line: Chromogenic substrate assay, Ki determination, Plasmin. The class given is biochemical. The method, then: as §1
Data set [5] deals with C57BL/6 mice. The experiment in a line: Tail bleeding time. It is filed as in vivo. The note with it: tail-cutting assay, mean ± SD, n = 10. The protocol: Figure 4 Effects of compounds 1–4 on clotting and bleeding time. (A) One hour after administration (intravenous injection) of compound 1 (white box), 2 (light gray box), 3 (dark gray box), or 4 (black box), blood was collected from the mice and platelet-poor plasma (PPP) was obtained by centrifugation at 2,000 × g for 10 min at room temperature to test ex vivo activated partial thromboplastin time (aPTT). (B) Each group received a daily intravenous injection of the indicated compound for four consecutive days. Fifteen minutes after the last administration, blood samples were collected and in vivo aPTT was measured. (C) Fifteen minutes after administration of each compound or aspirin (4.5 or 9 mg/kg for 30 min) or the vehicle, tail tips (3 mm long) were cut from each mouse, and the remaining tail was immediately immersed into saline at 37 °C. Accumulated bleeding times (including periods of re-bleeding) were recorded. D = 0.2% DMSO used as the vehicle control. Data are presented as means ± SD of three independent experiments. *p < 0.05 vs. vehicle alone, analyzed by one-way ANOVA, followed by Tukey multiple comparison testing.
To assess bleeding risk incurred by compounds 1–4, we measured bleeding time in mice treated with each compound (up to 30 µM/mouse) by using a tail-cutting assay; the concentration used was three-fold higher than the doses used for the in vivo anti-thrombotic studies. Aspirin-treated mice (9 mg/kg) served as positive controls. […] However, the bleeding time in mice treated with compounds 1–4 was shorter than that observed in mice treated with aspirin ([…], mean ± SD, n = 10). The dose required to avoid thrombus formation and to protect against paralysis or death in mice was determined to be 5 µM per mouse (Fig. 7C).
Tail bleeding times were measured using the method described by Dejana et al.[37]. Briefly, C57BL/6 mice were fasted overnight prior to the experiments. […] after the i.v. administration of each compound, the tails of the mice were transected […] from their tips. Bleeding time was defined as the time elapsed until bleeding stopped. Bleeding times that exceeding 15 min were recorded as 15 min.

SMILES strings stand for the structures.

Sequence of Plasmin (P00747 581-810 limits assumed): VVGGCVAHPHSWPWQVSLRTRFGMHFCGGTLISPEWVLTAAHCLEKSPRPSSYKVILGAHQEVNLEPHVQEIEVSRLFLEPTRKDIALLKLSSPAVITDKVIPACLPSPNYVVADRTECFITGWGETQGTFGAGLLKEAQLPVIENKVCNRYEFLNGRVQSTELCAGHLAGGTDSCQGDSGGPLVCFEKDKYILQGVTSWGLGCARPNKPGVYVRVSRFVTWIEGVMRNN
Sequence of Plasmin (P00747 97-580 limits assumed): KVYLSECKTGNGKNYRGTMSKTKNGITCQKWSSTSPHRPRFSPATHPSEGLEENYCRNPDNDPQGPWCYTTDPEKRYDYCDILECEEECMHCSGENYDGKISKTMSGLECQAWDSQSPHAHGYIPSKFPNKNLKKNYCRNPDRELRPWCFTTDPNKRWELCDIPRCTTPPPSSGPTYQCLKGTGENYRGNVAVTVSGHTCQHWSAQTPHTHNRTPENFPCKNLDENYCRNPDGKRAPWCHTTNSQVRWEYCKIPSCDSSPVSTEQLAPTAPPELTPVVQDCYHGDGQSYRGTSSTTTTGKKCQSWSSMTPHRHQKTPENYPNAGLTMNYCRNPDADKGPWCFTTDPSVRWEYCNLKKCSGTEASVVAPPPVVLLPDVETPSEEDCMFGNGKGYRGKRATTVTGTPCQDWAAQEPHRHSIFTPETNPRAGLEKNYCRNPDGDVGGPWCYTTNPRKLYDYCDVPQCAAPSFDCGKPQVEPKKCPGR
Sequence of tPA (P00750 36-562): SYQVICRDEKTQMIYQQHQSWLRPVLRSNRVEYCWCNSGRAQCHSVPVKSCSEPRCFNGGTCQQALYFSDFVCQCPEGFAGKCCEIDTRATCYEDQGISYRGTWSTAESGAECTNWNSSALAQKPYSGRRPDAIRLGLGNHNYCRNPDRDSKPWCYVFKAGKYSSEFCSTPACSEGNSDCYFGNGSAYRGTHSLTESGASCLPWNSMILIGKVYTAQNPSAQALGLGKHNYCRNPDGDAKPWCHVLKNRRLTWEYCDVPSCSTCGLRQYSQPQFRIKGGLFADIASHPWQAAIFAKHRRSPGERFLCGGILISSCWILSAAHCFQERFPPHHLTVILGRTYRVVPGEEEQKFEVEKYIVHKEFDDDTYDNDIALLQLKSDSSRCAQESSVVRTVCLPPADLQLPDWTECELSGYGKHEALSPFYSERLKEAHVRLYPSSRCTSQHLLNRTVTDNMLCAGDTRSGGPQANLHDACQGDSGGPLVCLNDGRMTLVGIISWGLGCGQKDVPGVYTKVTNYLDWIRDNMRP

The term Ki denotes a measure of affinity in units of concentration, obtained from inhibition or displacement. Low values mean higher affinity, high ones lower affinity. Take `CC(=O)NCCc1ccc2c(c1)O[C@H](c1ccc(O)c(O)c1)[C@H](NC(C)=O)O2` [Compound 1, (2 R,3 R)-2-(3′,4′-dihydroxyphenyl)-3-acetylamino-7-(N-acetyl-2″-aminoethyl)-1,4-benzodioxane]: in data set [1], the “Ratio = Ki enzyme/Ki Factor Xa, tPA” value is above 100. Further, the Ki in data set [1] (substrate S-2228), in data set [3] (substrate S-2444) and in data set [4] (substrate S-2251) was above 300 µM each time. Also, in data set [2], the “inhibition of FXa production (generation) by FVIIa in HUVECs” value is listed as “strongest inhibition”. Further, in data set [3], the “Ratio = Ki enzyme/Ki Factor Xa, Urokinase” value was above 100. In addition, the “Ratio = Ki enzyme/Ki Factor Xa, Plasmin” value in data set [4] is recorded as above 100. Also, the bleeding time in data set [5] (mice treated with 10 µM) was found to be 13.5 ± 1.3 min; in data set [5] (mice treated with 30 µM) it was 14.3 ± 1.2 min.

For the origin of these results see article PMC5554137, “Evaluation of novel factor Xa inhibitors from Oxya chinensis sinuosa with anti-platelet aggregation activity” (Scientific Reports, 2017).
